Data reported in PMC6175577, “BRCT domains of the DNA damage checkpoint proteins TOPBP1/Rad4 display distinct specificities for phosphopeptide ligands” (eLife, 2018).
Where a chain is given by its changes, count along the chain named. Like-named read-outs stand apart in the source and are kept apart here. Where a SMILES comes first, the peptide text is derived from it. [ ]: non-standard residue; d: D form. The star is where a group is joined. 5FAM = O=C1OC2(c3ccc(O)cc3Oc3cc(O)ccc32)c2ccc(C(=O)*)cc21; pT = C[C@@H](OP(=O)(O)O)[C@H](N)C(=O)O; pS = N[C@@H](COP(=O)(O)O)C(=O)O

Legend:
Rad4-BRCT1,2 K151E = molecular target: T1, Rad4-BRCT1,2 K151E (Schizosaccharomyces pombe, UniProt P32372, K151E); assay: Fluorescence polarisation titration, Rad4-BRCT1,2 K151E (BRCT2 mutant); conditions: FP, fluorescein-peptide 200 nM, HEPES pH 7.5, room temperature; ND = low-affinity non-specific response, no binding curve
T1 construct: made in house; host or cells: E. coli BL21(DE3)
T1 sequence (P32372 1-186 K151E limits assumed): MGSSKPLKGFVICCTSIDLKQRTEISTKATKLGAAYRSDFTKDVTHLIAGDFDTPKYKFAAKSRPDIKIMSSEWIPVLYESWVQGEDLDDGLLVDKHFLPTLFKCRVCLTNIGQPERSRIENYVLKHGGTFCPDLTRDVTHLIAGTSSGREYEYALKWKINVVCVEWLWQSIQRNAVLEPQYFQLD
Experimental: (§1) Fluorescein-labelled peptides (Peptide Protein Research Ltd, Fareham, UK) at a concentration of 200 nM, were incubated at room temperature with increasing concentrations of recombinant protein in 25 mM HEPES pH 7.5, 150 mM NaCl, 1 mM EDTA, 0.25 mM TCEP, 0.02% (v/v) Tween-20. Four parallel replicates of each titration were dispensed into a black 96-well polypropylene plate (VWR, Lutterworth, UK) for measurement. Fluorescence polarisation was measured in a CLARIOstar multimode microplate reader (BMG Labtech, Aylesbury, UK). Binding curves represent the mean of 4 independent experiments, with error bars indicating one standard deviation. All data were fitted by non-linear regression, to a one site-specific binding model in Prism seven for Mac OS X (v 7.0d, GraphPad Software) in order to calculate the reported dissociation constants (Kd). Low-affinity non-specific responses for which a binding curve could not be determined are marked as ND.

Rad4-BRCT3,4 = molecular target: T2, Rad4-BRCT3,4 (Schizosaccharomyces pombe, UniProt P32372); assay: Fluorescence polarisation titration, Rad4-BRCT3,4; conditions: FP, fluorescein-peptide 200 nM, HEPES pH 7.5, room temperature; ND = low-affinity non-specific response, no binding curve
T2 construct: made in house; host or cells: E. coli BL21(DE3)
T2 sequence (P32372 291-494 limits assumed): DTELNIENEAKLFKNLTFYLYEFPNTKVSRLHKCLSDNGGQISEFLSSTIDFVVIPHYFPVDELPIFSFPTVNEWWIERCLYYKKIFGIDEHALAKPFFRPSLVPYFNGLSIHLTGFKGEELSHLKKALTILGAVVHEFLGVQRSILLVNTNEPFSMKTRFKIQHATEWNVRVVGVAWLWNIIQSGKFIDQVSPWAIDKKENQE
Experimental: as §1

Rad4-BRCT1,2 WT = molecular target: T3, Rad4-BRCT1,2 WT (Schizosaccharomyces pombe, UniProt P32372); assay: Fluorescence polarisation titration, Rad4-BRCT1,2 wild-type; conditions: FP, fluorescein-peptide 200 nM, HEPES pH 7.5, room temperature, one-site fit, 4 replicates; ND = low-affinity non-specific response, no binding curve
T3 construct: made in house; host or cells: E. coli BL21(DE3)
T3 sequence (P32372 1-186 limits assumed): T1 sequence (P32372 1-186 K151E limits assumed) with E151K
Experimental: as §1

Rad4-BRCT1,2 K56E = molecular target: T4, Rad4-BRCT1,2 K56E (Schizosaccharomyces pombe, UniProt P32372, K56E); assay: Fluorescence polarisation titration, Rad4-BRCT1,2 K56E (BRCT1 mutant); format: binding; conditions: FP, fluorescein-peptide 200 nM, HEPES pH 7.5, room temperature, one-site fit, 4 replicates
T4 construct: made in house; host or cells: E. coli BL21(DE3)
T4 sequence (P32372 1-186 K56E limits assumed): T1 sequence (P32372 1-186 K151E limits assumed) with K56E, E151K
Experimental: as §1

TOPBP1-BRCT0,1,2 WT = molecular target: T5, TOPBP1-BRCT0,1,2 WT (Homo sapiens, UniProt Q92547); assay: Fluorescence polarisation titration, TOPBP1-BRCT0,1,2 wild-type; format: binding
T5 construct: made in house; host or cells: E. coli BL21(DE3)
Experimental: as §1

TOPBP1-BRCT0,1,2 K155E = molecular target: T6, TOPBP1-BRCT0,1,2 K155E (Homo sapiens, UniProt Q92547, K155E); assay: Fluorescence polarisation titration, TOPBP1-BRCT0,1,2 K155E (BRCT1 mutant); format: binding
T6 construct: made in house; host or cells: E. coli BL21(DE3)
Experimental: as §1

TOPBP1-BRCT7,8 = molecular target: T7, TOPBP1-BRCT7,8 (Homo sapiens, UniProt Q92547); assay: Fluorescence polarisation titration, TOPBP1-BRCT7,8; format: binding; conditions: FP, fluorescein-peptide 200 nM, HEPES pH 7.5, room temperature, one-site fit; ND = low-affinity non-specific response, no binding curve
T7 construct: made in house; host or cells: E. coli BL21(DE3)
Experimental: as §1

TOPBP1-BRCT4,5 = molecular target: T8, TOPBP1-BRCT4,5 (Homo sapiens, UniProt Q92547); assay: Fluorescence polarisation titration, TOPBP1-BRCT4,5; format: binding; conditions: FP, fluorescein-peptide 200 nM, HEPES pH 7.5, room temperature, one-site fit, 4 replicates; ND = low-affinity non-specific response, no binding curve
T8 construct: made in house; host or cells: E. coli BL21(DE3)
Experimental: as §1

TOPBP1-BRCT0,1,2 K250E = molecular target: T9, TOPBP1-BRCT0,1,2 K250E (Homo sapiens, UniProt Q92547, K250E); assay: Fluorescence polarisation titration, TOPBP1-BRCT0,1,2 K250E (BRCT2 mutant); format: binding
T9 construct: made in house; host or cells: E. coli BL21(DE3)
Experimental: as §1

[1] = FP, fluorescein-peptide 200 nM, HEPES pH 7.5, room temperature, one-site fit, 4 replicates
[2] = FP, fluorescein-peptide 200 nM, HEPES pH 7.5, room temperature, one-site fit, 4 replicates, read-out: Kd

T6 sequence (Q92547 1-290 K155E limits assumed): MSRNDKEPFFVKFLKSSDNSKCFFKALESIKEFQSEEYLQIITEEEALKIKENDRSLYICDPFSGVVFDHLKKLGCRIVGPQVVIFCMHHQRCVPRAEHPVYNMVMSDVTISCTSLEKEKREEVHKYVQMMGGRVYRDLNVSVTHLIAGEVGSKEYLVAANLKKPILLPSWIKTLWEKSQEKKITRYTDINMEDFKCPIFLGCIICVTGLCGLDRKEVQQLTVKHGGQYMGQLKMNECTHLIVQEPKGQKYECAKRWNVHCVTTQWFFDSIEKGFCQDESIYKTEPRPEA
T5 sequence (Q92547 1-290 limits assumed): as the sequence (Q92547 1-290 K155E limits assumed) above, with E155K counted along it
T9 sequence (Q92547 1-290 K250E limits assumed): as the sequence (Q92547 1-290 K155E limits assumed) above, with E155K, K250E counted along it
T7 sequence (Q92547 1264-1493 limits assumed): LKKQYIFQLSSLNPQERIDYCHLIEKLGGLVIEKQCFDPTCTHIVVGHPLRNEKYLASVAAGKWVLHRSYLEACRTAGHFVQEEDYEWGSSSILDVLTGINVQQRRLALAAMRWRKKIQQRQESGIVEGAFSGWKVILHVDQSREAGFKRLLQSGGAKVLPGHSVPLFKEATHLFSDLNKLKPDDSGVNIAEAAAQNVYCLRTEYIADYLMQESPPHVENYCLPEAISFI
T8 sequence (Q92547 549-746 limits assumed): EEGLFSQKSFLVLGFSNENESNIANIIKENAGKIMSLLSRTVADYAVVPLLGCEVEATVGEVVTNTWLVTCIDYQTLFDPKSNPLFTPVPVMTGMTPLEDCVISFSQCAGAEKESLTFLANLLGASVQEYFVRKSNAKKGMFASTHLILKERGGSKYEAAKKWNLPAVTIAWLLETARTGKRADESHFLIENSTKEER

With `CSCC[C@H](NC(=O)[C@@H](NC(=O)CNC(=O)CNC(=O)[C@H](Cc1ccc(O)cc1)NC(=O)CNC(=O)c1ccc2c(c1)C(=O)OC21c2ccc(O)cc2Oc2cc(O)ccc21)C(C)C)C(=O)N[C@H](C(=O)N[C@H](C(=O)N1CCC[C@H]1C(=O)N[C@@H](CC(N)=O)C(=O)N[C@H](C(=O)N1CCC[C@H]1C(=O)N[C@@H](CCC(N)=O)C(=O)N[C@@H](CCCCN)C(=O)N1CCC[C@H]1C(=O)N[C@@H](CC(N)=O)C(=O)N[C@@H](CC(C)C)C(=O)N[C@@H](CCC(N)=O)C(=O)O)[C@@H](C)OP(=O)(O)O)C(C)C)[C@@H](C)O` [Mdb1 pT113] (5FAM-GYGGVMTVPN[pT]PQKPNLQ-OH) the Kd (Rad4-BRCT1,2 K151E) was “substantially reduced compared to wild-type”, the Kd (Rad4-BRCT3,4) was “no binding” and the Kd (Rad4-BRCT1,2 WT) was “low micromolar affinity”. For the same molecule, the Kd (Rad4-BRCT1,2 K56E) was “largely unaffected”.
For `CC[C@H](C)[C@H](NC(=O)CNC(=O)[C@H](Cc1ccc(O)cc1)NC(=O)[C@H](CCCCN)NC(=O)[C@H](CC(=O)O)NC(=O)[C@H](CCC(=O)O)NC(=O)[C@@H]1CCCN1C(=O)[C@@H](NC(=O)[C@H](CC(=O)O)NC(=O)[C@H](CCCCN)NC(=O)[C@@H](NC(=O)[C@H](CC(C)C)NC(=O)[C@@H](NC(=O)[C@@H]1CCCN1C(=O)CNC(=O)CNC(=O)[C@H](Cc1ccc(O)cc1)NC(=O)CN)C(C)C)C(C)C)[C@@H](C)OP(=O)(O)O)C(=O)O` [RHNO1 pT202] (H-GYGGPVLVKD[pT]PEDKYGI-OH; N-terminus and C-terminus assumed), the Kd (TOPBP1-BRCT0,1,2 WT; [1]) was “sub-micromolar affinity”, the Kd (TOPBP1-BRCT0,1,2 WT; [2]) was less than 200 nM and the “Fold tighter binding than RAD9-pS387” value (TOPBP1-BRCT0,1,2 WT; RHNO1-pT202 versus RAD9-pS387, binding to TOPBP1 BRCT1) was ~ 10 fold. For the same molecule, the Kd (TOPBP1-BRCT0,1,2 K155E; FP, fluorescein-peptide 200 nM, HEPES pH 7.5, room temperature, one-site fit, 4 replicates, ND = low-affinity non-specific response, no binding curve) was “no binding was observed”, the Kd (TOPBP1-BRCT7,8) was “did not show any measurable binding” and the Kd (TOPBP1-BRCT4,5) was “did not show any measurable binding”. The Kd (TOPBP1-BRCT0,1,2 K250E; [1]) was “comparable affinity to the wild-type” and the Kd (TOPBP1-BRCT0,1,2 K250E; [2]) was less than 200 nM.
With `CC[C@H](C)[C@H](NC(=O)[C@H](CCC(N)=O)NC(=O)[C@H](CCCCN)NC(=O)[C@H](Cc1c[nH]cn1)NC(=O)[C@@H](NC(=O)[C@@H]1CCCN1C(=O)[C@@H](NC(=O)[C@H](CCC(=O)O)NC(=O)[C@H](C)NC(=O)[C@@H](NC(=O)[C@H](CO)NC(=O)[C@H](CCCCN)NC(=O)[C@@H](NC(=O)[C@H](CC(C)C)NC(=O)CNC(=O)[C@H](Cc1ccc(O)cc1)NC(=O)CNC(=O)c1ccc2c(c1)C(=O)OC21c2ccc(O)cc2Oc2cc(O)ccc21)[C@@H](C)O)C(C)C)[C@@H](C)OP(=O)(O)O)C(C)C)C(=O)N[C@@H](CO)C(=O)O` [Treslin pT969] (5FAM-GYGLTKSVAE[pT]PVHKQIS-OH) the Kd (TOPBP1-BRCT0,1,2 WT; read-out: Kd) was 940 ± 60 nM and the Kd (TOPBP1-BRCT0,1,2 K155E; read-out: Kd) was 1000 ± 60 nM.
`CC[C@H](C)[C@H](NC(=O)[C@H](CCC(=O)O)NC(=O)[C@H](CC(=O)O)NC(=O)CNC(=O)[C@H](CCCCN)NC(=O)[C@H](CCC(=O)O)NC(=O)[C@@H]1CCCN1C(=O)[C@H](COP(=O)(O)O)NC(=O)[C@H](CCC(=O)O)NC(=O)[C@H](CCC(=O)O)NC(=O)[C@@H](NC(=O)[C@@H](NC(=O)CNC(=O)[C@@H](NC(=O)[C@H](CC(=O)O)NC(=O)CNC(=O)[C@H](Cc1ccc(O)cc1)NC(=O)CNC(=O)c1ccc2c(c1)C(=O)OC21c2ccc(O)cc2Oc2cc(O)ccc21)[C@@H](C)CC)C(C)C)C(C)C)C(=O)O` [Treslin pT1001] (5FAM-GYGDIGVVEE[pS]PEKGDEI-OH) was tested, and the Kd (TOPBP1-BRCT0,1,2 WT; read-out: Kd) was 600 ± 30 nM, the Kd (TOPBP1-BRCT0,1,2 K155E; read-out: Kd) was 730 ± 40 nM and the Kd (TOPBP1-BRCT0,1,2 K250E; read-out: Kd) was 350 ± 130 nM.
